Data from the supplement of paper PMC10307832.

Experiments:
Experiment in all cases: relative viability (nuclei count vs DMSO), 5 days (fraction); higher = more cells survive
VE-821 + Navitoclax = compound: CS(=O)(=O)c1ccc(-c2cnc(N)c(C(=O)Nc3ccccc3)n2)cc1 [VE-821] + CC1(C)CCC(c2ccc(Cl)cc2)=C(CN2CCN(c3ccc(C(=O)NS(=O)(=O)c4ccc(N[C@H](CCN5CCOCC5)CSc5ccccc5)c(S(=O)(=O)C(F)(F)F)c4)cc3)CC2)C1 [Navitoclax] (partner 0.5 µM)
Outline: (§1)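 The day after seeding in 1536-well plates, lung cancer cell lines were treated by pin tool with a single drug, or with a fixed anchor-drug dose together with five library-drug doses (not always all listed) in √10 steps. After 5 days, a combined fix-and-stain solution (final 0.05% Triton X-100, 1% formaldehyde, 1 ug/ml Hoechst) was added. Nuclei counted on 4× images gave relative viability as treated counts over vehicle counts, reported as the median of duplicate plates.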

Vismodegib + Bortezomib = compound: CS(=O)(=O)c1ccc(C(=O)Nc2ccc(Cl)c(-c3ccccn3)c2)c(Cl)c1 [Vismodegib] + CC(C)C[C@H](NC(=O)[C@H](Cc1ccccc1)NC(=O)c1cnccn1)B(O)O [Bortezomib] (partner 0.002 µM)
Outline: as §1

Vismodegib + Phenformin = compound: CS(=O)(=O)c1ccc(C(=O)Nc2ccc(Cl)c(-c3ccccn3)c2)c(Cl)c1 [Vismodegib] + N=C(N)NC(=N)NCCc1ccccc1 [Phenformin] (partner 250 µM)
Outline: as §1

Ruxolitinib + Tozasertib = compound: N#CC[C@H](C1CCCC1)n1cc(-c2ncnc3[nH]ccc23)cn1 [Ruxolitinib] + Cc1cc(Nc2cc(N3CCN(C)CC3)nc(Sc3ccc(NC(=O)C4CC4)cc3)n2)n[nH]1 [Tozasertib] (partner 0.1 µM)
Outline: as §1

Cell Line UMC-11 has a relative viability (VE-821 + Navitoclax; first compound 0.08 µM) of 0.358, a relative viability (VE-821 + Navitoclax; first compound 0.253 µM) of 0.344 and a relative viability (VE-821 + Navitoclax; first compound 0.8 µM) of 0.332. The relative viability (VE-821 + Navitoclax; first compound 2.53 µM) was 0.302, the relative viability (VE-821 + Navitoclax; first compound 8 µM) was 0.222 and the relative viability (Vismodegib + Bortezomib; first compound 0.08 µM) was 0.593. It also gave a relative viability (Vismodegib + Bortezomib; first compound 0.253 µM) of 0.665, a relative viability (Vismodegib + Bortezomib; first compound 0.8 µM) of 0.85 and a relative viability (Vismodegib + Bortezomib; first compound 2.53 µM) of 0.717. The relative viability (Vismodegib + Bortezomib; first compound 8 µM) was 0.745, the relative viability (Vismodegib + Phenformin; first compound 0.08 µM) was 0.286 and the relative viability (Vismodegib + Phenformin; first compound 0.253 µM) was 0.311. For the same cell line, the relative viability (Vismodegib + Phenformin; first compound 0.8 µM) was 0.301, the relative viability (Vismodegib + Phenformin; first compound 2.53 µM) was 0.283 and the relative viability (Vismodegib + Phenformin; first compound 8 µM) was 0.284. It also gave a relative viability (Ruxolitinib + Tozasertib; first compound 0.08 µM) of 0.206, a relative viability (Ruxolitinib + Tozasertib; first compound 0.253 µM) of 0.206 and a relative viability (Ruxolitinib + Tozasertib; first compound 0.8 µM) of 0.203. It also gave a relative viability (Ruxolitinib + Tozasertib; first compound 2.53 µM) of 0.214 and a relative viability (Ruxolitinib + Tozasertib; first compound 8 µM) of 0.2.
